Reference: the NIST ThermoML archive (doi:10.1016/j.fluid.2018.04.012)

Assay: xn = mol fraction of the nth substance listed
Settings: Liquid, Vibrating tube method

CC(C)OC(C)C [diisopropyl ether] + CC(C)O
mass density [kg/m3]
Settings | x2 = 0.1503 | x2 = 0.2979 | x2 = 0.4228 | x2 = 0.5 | x2 = 0.6737 | x2 = 0.8483
373.24 K, 50000 kPa | – | 719.3 | 724.5 | 728 | 737.2 | 748.6
373.24 K, 55000 kPa | 719.1 | 724.1 | 729.2 | 732.6 | 741.7 | 752.7
373.24 K, 60000 kPa | 723.5 | 728.5 | 733.6 | 736.9 | 745.8 | 756.7
373.24 K, 65000 kPa | 727.8 | 732.8 | 737.8 | 741.1 | 749.8 | 760.5
373.24 K, 70000 kPa | 732 | 736.8 | 741.8 | 745 | 753.6 | 764.2
373.24 K, 80000 kPa | 739.7 | 744.5 | 749.3 | 752.6 | 760.9 | 771.2
373.24 K, 90000 kPa | 747 | 751.7 | 756.3 | 759.4 | 767.7 | 777.7
373.24 K, 100000 kPa | 753.7 | 758.3 | 762.8 | 765.9 | 774 | 783.8
373.24 K, 110000 kPa | 760 | 764.5 | 768.9 | 772 | 779.9 | 789.5
373.24 K, 120000 kPa | 765.9 | 770.4 | 774.7 | 777.8 | 785.5 | 795
373.24 K, 130000 kPa | 771.6 | 776 | 780.2 | 783.3 | 790.9 | 800.2
373.24 K, 140000 kPa | 776.9 | 781.3 | 785.3 | 788.5 | 796 | 805.1
393.28 K, 1000 kPa | 614.1 | 620.6 | 627.9 | 632.9 | 645.9 | 662.5
393.28 K, 5000 kPa | 626.4 | 632.4 | 638.9 | 643.7 | 655.9 | 671.3
393.28 K, 10000 kPa | 639 | 644.7 | 650.5 | 655.2 | 666.5 | 680.9
393.28 K, 15000 kPa | 649.7 | 655.1 | 660.6 | 665.1 | 675.7 | 689.4
393.28 K, 20000 kPa | 658.9 | 664.1 | 669.5 | 673.7 | 683.9 | 696.9
393.28 K, 25000 kPa | 667.1 | 672.2 | 677.4 | 681.4 | 691.2 | 703.8
393.28 K, 30000 kPa | 674.7 | 679.5 | 684.6 | 688.5 | 698 | 710.1
393.28 K, 35000 kPa | 681.5 | 686.3 | 691.3 | 695.1 | 704.2 | 716
393.28 K, 40000 kPa | 687.8 | 692.5 | 697.4 | 701 | 710.1 | 721.5
393.28 K, 45000 kPa | 693.6 | 698.2 | 703.2 | 706.6 | 715.4 | 726.6
393.28 K, 50000 kPa | 699.1 | 703.7 | 708.6 | 711.8 | 720.5 | 731.5
393.28 K, 55000 kPa | 704.5 | 708.9 | 713.6 | 716.9 | 725.4 | 736.2
393.28 K, 60000 kPa | 709.2 | 713.7 | 718.4 | 721.6 | 729.9 | 740.5
393.28 K, 65000 kPa | 713.9 | 718.3 | 723 | 726 | 734.3 | 744.7
393.28 K, 70000 kPa | 718.4 | 722.8 | 727.3 | 730.4 | 738.5 | 748.8
393.28 K, 80000 kPa | 726.7 | 731 | 735.5 | 738.5 | 746.4 | 756.3
393.28 K, 90000 kPa | 734.4 | 738.6 | 742.9 | 746.1 | 753.7 | 763.4
393.28 K, 100000 kPa | 741.5 | 745.6 | 749.9 | 752.9 | 760.4 | 769.9
393.28 K, 110000 kPa | 748.3 | 752.4 | 756.4 | 759.5 | 766.8 | 776.1
393.28 K, 120000 kPa | 754.5 | 758.5 | 762.5 | 765.5 | 772.8 | 781.8
393.28 K, 130000 kPa | 760.4 | 764.4 | 768.3 | 771.3 | 778.4 | 787.4
393.28 K, 140000 kPa | 766.1 | 770 | 773.8 | 776.8 | 783.9 | 792.7
